Assays:
[1] = target: T1, LAG-3 / MHCII (Revvity HTRF Human LAG-3 / MHCII Binding Kit) (Homo sapiens, UniProt P18627); test: HTRF
T1 sequence (P18627 23-450 limits assumed): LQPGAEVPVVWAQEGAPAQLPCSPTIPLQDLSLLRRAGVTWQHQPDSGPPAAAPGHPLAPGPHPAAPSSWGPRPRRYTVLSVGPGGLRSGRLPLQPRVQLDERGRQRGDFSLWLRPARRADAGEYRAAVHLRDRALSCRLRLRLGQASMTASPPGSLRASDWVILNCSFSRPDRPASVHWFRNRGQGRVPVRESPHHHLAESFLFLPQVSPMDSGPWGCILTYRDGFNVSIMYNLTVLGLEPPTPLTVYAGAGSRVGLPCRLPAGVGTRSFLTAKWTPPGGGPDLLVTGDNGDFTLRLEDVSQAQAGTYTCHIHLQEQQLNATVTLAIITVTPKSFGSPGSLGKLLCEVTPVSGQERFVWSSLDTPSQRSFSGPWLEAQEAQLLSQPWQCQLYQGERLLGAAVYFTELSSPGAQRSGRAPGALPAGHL

[2] = target: T2, LAG-3-His (recombinant human LAG-3; discussed as LAG-3 D1) (Homo sapiens, UniProt P18627); test: MST; type: binding
T2 sequence (P18627 23-450 limits assumed): T1 sequence (P18627 23-450 limits assumed)

`N#Cc1ccnnc1N1CCCC(c2c[nH]c3ncccc23)C1` (centres unmarked) [N05] was tested, and the EC50 [1] was 42.9 µM and the Kd [2] was 59.2 µM.

— publication doi:10.64898/2025.12.07.692800v1 (biorxiv, 2025)
